Experimental data as given in patent publication US9789181B2, “PAN-DR binding polypeptides and uses thereof” (Epimmune Inc., priority 2009, dated 2017).
pIC50: −log10 of the molar value. Where no end group is shown, it is not given here.

These sequences were tested against HLA DRB1 *0101 (Homo sapiens, UniProt P01903+P01911, A100R/D57E/F55L/F60I/F76Y/I96L/L162R/M171V/P40L/Q125E/R42F/V115G/Y59C) (assay: IC50nM to purified HLA | DRB1 *0101).
Experimental: (§1) Table printed on a drawing sheet, FIG. 1 (contd.)
Head of the field: IC50nM to purified HLA | DRB1 *0101
(§2) First copying reader's note: Continued from the preceding sheet of FIG. 1; decimal commas are used, the analog names give the substituted residues and positions in PADRE, and some values are printed in italics or bold and some SEQ ID NOs bold and underlined without a legend on this sheet.
Where the first naming reader finds the target: head: IC50nM to purified HLA | DRB1 *0101

Sequence	pIC50
AAADFVAAWTLHAAA [SEQ ID NO: 41]	8.31
AAANFVAAYTLHAAA [SEQ ID NO: 52]	8.57
AAADFVAAFTLHAAA [SEQ ID NO: 43]	8.14
AAAEFVAAYTLHAAA [SEQ ID NO: 47]	8.41
AAAEFVAAFTLHAAA [SEQ ID NO: 48]	8.21

What follows are sequences tested against HLA DRB1 *0301 (Homo sapiens, UniProt P01903+P01911, A100K/A102G/A103R/A169T/F55Y/I96L/K41T/L162R/M171V/P40S/Q125H/Q178H/Q39Y/R42S/S66N/T106N/T262R/W38E/Y61H) (assay: IC50nM to purified HLA | DRB1 *0301).
HLA DRB1 *0301, sequence (P01903 26-254 limits assumed, other chains not shown): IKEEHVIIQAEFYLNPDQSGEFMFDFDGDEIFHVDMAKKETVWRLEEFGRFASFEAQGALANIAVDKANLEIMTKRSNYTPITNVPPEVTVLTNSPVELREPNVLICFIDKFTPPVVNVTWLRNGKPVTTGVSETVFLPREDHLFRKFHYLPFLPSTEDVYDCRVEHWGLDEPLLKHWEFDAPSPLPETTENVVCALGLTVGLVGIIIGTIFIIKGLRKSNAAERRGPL
Experimental: as §1
Head of the field: IC50nM to purified HLA | DRB1 *0301
as §2
Where the first naming reader finds the target: head: IC50nM to purified HLA | DRB1 *0301

Sequence	pIC50
AAADFVAAWTLHAAA [SEQ ID NO: 41]	6.60
AAANFVAAYTLHAAA [SEQ ID NO: 52]	6.77
AAADFVAAFTLHAAA [SEQ ID NO: 43]	6.13
AAAEFVAAYTLHAAA [SEQ ID NO: 47]	6.84

These sequences were tested against HLA DRB1 *0401 (Homo sapiens, UniProt P01903+P01911, A100K/A169T/F76Y/I96L/K127E/L162R/M171V/N62H/P40V/Q125Y/R42H/S133A/S149N/S66Y/V115G/V209L/W38E) (assay: IC50nM to purified HLA | DRB1 *0401).
Experimental: as §1
Head of the field: IC50nM to purified HLA | DRB1 *0401
as §2
Where the first naming reader finds the target: head: IC50nM to purified HLA | DRB1 *0401

Sequence	pIC50
AAADFVAAWTLHAAA [SEQ ID NO: 41]	8.28
AAADFVAAFTLHAAA [SEQ ID NO: 43]	8.33
AAAEFVAAYTLHAAA [SEQ ID NO: 47]	8.64
AAAEFVAAFTLHAAA [SEQ ID NO: 48]	8.68

Each sequence was assayed against HLA DRB1 *0404 (Homo sapiens, UniProt P01903+P01911, A100R/A169T/F76Y/I96L/K127E/L162R/M171V/N62H/P40V/Q125Y/R42H/S133A/S149N/S66Y/V209L/W38E) (assay: IC50nM to purified HLA | DRB1 *0404).
Experimental: as §1
Head of the field: IC50nM to purified HLA | DRB1 *0404
as §2
Where the first naming reader finds the target: head: IC50nM to purified HLA | DRB1 *0404

Sequence	pIC50
AAADFVAAWTLHAAA [SEQ ID NO: 41]	8.15
AAADFVAAFTLHAAA [SEQ ID NO: 43]	8.43
AAAEFVAAYTLHAAA [SEQ ID NO: 47]	8.49
AAAEFVAAFTLHAAA [SEQ ID NO: 48]	8.59

These sequences were tested against HLA DRB1 *0802 (Homo sapiens, UniProt P01903+P01911, A100R/A103L/A169T/F76Y/H45Y/I96F/K41T/L162R/M171V/P40S/Q125H/Q178H/Q39Y/Q99D/R218S/R42G/S66Y/V115G/W38E) (assay: IC50nM to purified HLA | DRB1 *0802).
Experimental: as §1
Head of the field: IC50nM to purified HLA | DRB1 *0802
as §2
Where the first naming reader finds the target: head: IC50nM to purified HLA | DRB1 *0802

Sequence	pIC50
AAADFVAAWTLHAAA [SEQ ID NO: 41]	7.62
AAAEFVAAYTLHAAA [SEQ ID NO: 47]	7.89
AAAEFVAAFTLHAAA [SEQ ID NO: 48]	7.72

These sequences were tested against HLA DRB1 *0901 (Homo sapiens, UniProt P01903+P01911, A100R/A103E/D57H/D86V/F55Y/F60I/F76Y/I96F/K127E/L162R/M171V/P40D/Q125H/Q99R/R33Q/R42F/S133A/S66N/T210M/V115G/W38K/Y107V/Y59G/Y89S) (assay: IC50nM to purified HLA | DRB1 *0901).
Experimental: as §1
Head of the field: IC50nM to purified HLA | DRB1 *0901
as §2
Where the first naming reader finds the target: head: IC50nM to purified HLA | DRB1 *0901

Sequence	pIC50
AAADFVAAWTLHAAA [SEQ ID NO: 41]	7.40
AAAEFVAAYTLHAAA [SEQ ID NO: 47]	7.55
AAAEFVAAFTLHAAA [SEQ ID NO: 48]	7.74

The sequences below were run against HLA DRB1 *1101 (Homo sapiens, UniProt P01903+P01911, A100R/A169T/A87E/I96F/K41T/L162R/M171V/P40S/Q125H/Q178H/Q39Y/Q99D/R42S/S66Y/T262R/V115G/W38E) (assay: IC50nM to purified HLA | DRB1 *1101).
HLA DRB1 *1101, sequence (P01903 26-254 limits assumed, other chains not shown): as above
Experimental: as §1
Head of the field: IC50nM to purified HLA | DRB1 *1101
as §2
Where the first naming reader finds the target: head: IC50nM to purified HLA | DRB1 *1101

Sequence	pIC50
AAADFVAAWTLHAAA [SEQ ID NO: 41]	7.55
AAANFVAAYTLHAAA [SEQ ID NO: 52]	7.80
AAADFVAAFTLHAAA [SEQ ID NO: 43]	7.36
AAAEFVAAYTLHAAA [SEQ ID NO: 47]	7.57
AAAEFVAAFTLHAAA [SEQ ID NO: 48]	7.32

Each sequence was assayed against HLA DRB1 *1501 (Homo sapiens, UniProt P01903+P01911) (assay: IC50nM to purified HLA | DRB1 *1501).
Experimental: as §1
Head of the field: IC50nM to purified HLA | DRB1 *1501
as §2
Where the first naming reader finds the target: head: IC50nM to purified HLA | DRB1 *1501

Sequence	pIC50
AAADFVAAWTLHAAA [SEQ ID NO: 41]	7.05
AAANFVAAYTLHAAA [SEQ ID NO: 52]	8.38
AAADFVAAFTLHAAA [SEQ ID NO: 43]	7.01
AAAEFVAAYTLHAAA [SEQ ID NO: 47]	8.16
AAAEFVAAFTLHAAA [SEQ ID NO: 48]	7.30

The sequences below were run against HLA DRB4 *0101 (Homo sapiens, UniProt P01903+P13762, G164S) (assay: IC50nM to purified HLA | DRB4 *0101).
HLA DRB4 *0101, sequence (P01903 26-254 limits assumed): as the sequence (P01903 26-254 limits assumed, other chains not shown) above
HLA DRB4 *0101, sequence (P13762 whole entry G164S): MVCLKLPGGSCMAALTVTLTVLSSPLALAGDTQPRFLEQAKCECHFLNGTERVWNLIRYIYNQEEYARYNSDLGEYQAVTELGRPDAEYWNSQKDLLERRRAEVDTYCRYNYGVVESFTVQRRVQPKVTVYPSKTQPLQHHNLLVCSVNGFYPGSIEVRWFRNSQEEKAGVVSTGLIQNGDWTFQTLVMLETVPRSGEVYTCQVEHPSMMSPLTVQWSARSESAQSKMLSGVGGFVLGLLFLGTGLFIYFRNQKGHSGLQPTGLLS
Experimental: as §1
Head of the field: IC50nM to purified HLA | DRB4 *0101
as §2
Where the first naming reader finds the target: head: IC50nM to purified HLA | DRB4 *0101

Sequence	pIC50
AAADFVAAFTLHAAA [SEQ ID NO: 43]	5.98
AAAEFVAAYTLHAAA [SEQ ID NO: 47]	6.35
AAAEFVAAFTLHAAA [SEQ ID NO: 48]	6.88

The sequences below were run against HLA DRB1 *0405 (Homo sapiens, UniProt P01903+P01911, A100R/A169T/D86S/F76Y/I96L/K127E/L162R/M171V/N62H/P40V/Q125Y/R42H/S133A/S149N/S66Y/V115G/V209L/W38E) (assay: IC50nM to purified HLA | DRB1 *0405).
Experimental: as §1
Head of the field: IC50nM to purified HLA | DRB1 *0405
as §2
Where the first naming reader finds the target: head: IC50nM to purified HLA | DRB1 *0405

Sequence	pIC50
AAADFVAAWTLHAAA [SEQ ID NO: 41]	7.57
AAANFVAAYTLHAAA [SEQ ID NO: 52]	7.72
AAADFVAAFTLHAAA [SEQ ID NO: 43]	7.96
AAAEFVAAYTLHAAA [SEQ ID NO: 47]	7.77
AAAEFVAAFTLHAAA [SEQ ID NO: 48]	7.85

These sequences were tested against HLA DRB1 *0701 (Homo sapiens, UniProt P01903+P01911, A100R/A102G/A103Q/D57E/D86V/E43K/F76Y/K127E/L162R/M171V/P40G/Q125H/Q99D/R33Q/R42Y/R54Q/S133A/S66F/T210M/V115G/Y107V/Y59L/Y89S) (assay: IC50nM to purified HLA | DRB1 *0701).
Experimental: as §1
Head of the field: IC50nM to purified HLA | DRB1 *0701
as §2
Where the first naming reader finds the target: head: IC50nM to purified HLA | DRB1 *0701

Sequence	pIC50
AAADFVAAWTLHAAA [SEQ ID NO: 41]	6.82
AAANFVAAYTLHAAA [SEQ ID NO: 52]	7.17
AAADFVAAFTLHAAA [SEQ ID NO: 43]	6.65
AAAEFVAAYTLHAAA [SEQ ID NO: 47]	6.79
AAAEFVAAFTLHAAA [SEQ ID NO: 48]	6.85

Each sequence was assayed against HLA DRB1 *1302 (Homo sapiens, UniProt P01903+P01911, A100E/A169T/K41T/L162R/M171V/P40S/Q125H/Q178H/Q39Y/Q99D/R42S/S66N/T262R/V115G/W38E/Y61H) (assay: IC50nM to purified HLA | DRB1 *1302).
HLA DRB1 *1302, sequence (P01903 26-254 limits assumed, other chains not shown): as the sequence (P01903 26-254 limits assumed, other chains not shown) above
Experimental: as §1
Head of the field: IC50nM to purified HLA | DRB1 *1302
as §2
Where the first naming reader finds the target: head: IC50nM to purified HLA | DRB1 *1302

Sequence	pIC50
AAANFVAAYTLHAAA [SEQ ID NO: 52]	5.85
AAAEFVAAYTLHAAA [SEQ ID NO: 47]	5.84
AAAEFVAAFTLHAAA [SEQ ID NO: 48]	5.70

Each sequence was assayed against HLA DRB5 *0101 (Homo sapiens, UniProt P01903+Q30154) (assay: IC50nM to purified HLA | DRB5 *0101).
Experimental: as §1
Head of the field: IC50nM to purified HLA | DRB5 *0101
as §2
Where the first naming reader finds the target: head: IC50nM to purified HLA | DRB5 *0101

Sequence	pIC50
AAAEFVAAYTLHAAA [SEQ ID NO: 47]	7.28
